According to patent publication EP0157361A2, “Analysis method and means for detecting esterolytic and or proteolytic enzymes” (MILES INC., priority 1984, dated 1985):
“Also recorded” adds a separate entry of the source.

Tests used:
Type in all cases: biochemical
Leukozyten-Enzyme [1] = experiment: Acceleration of cleavage of N-Tosyl-L-alanin-3-hydroxy-5-phenylpyrrolester by leukocytes (photometric, 330 nm); conditions: 250 µl N-Methylpyrrolidon
Experimental: (§1) Zu 2.25 ml des betreffenden Puffers fügte man je nach Substrat 50 - 250 µl N-Methylpyrrolidon als Lösungsvermittler und ergänzte das Volumen der Lösung mit Puffer auf 2.5 ml. Dann wurden 5 µl einer Lösung von 5 - 100 mg n-Undecanol in 1 ml N-Methylpyrrolidon sowie 5 µl einer Lösung von 2 mg Natriumdodecylsulfat (SDS) bzw. 4 mg der anderen Detergentien in 1 ml Wasser oder N-Methylpyrrolidon zu der Reaktionsmischung zugegeben. Nach gutem Durchmischen wurden 5 µl einer 10-1 molaren Substratlösung in N-Methylpyrrolidon, Dimethylformamid oder Dimethylsulfoxid in die Reaktionslösung gegeben und nach der Zugabe der Leukozytensuspension der Extinktionsanstieg bei der angegebenen Wellenlänge kontinuierlich verfolgt. Die Spontanhydrolyse des Substrats wird in einem Paralellansatz ohne Leukozytenzugabe anhand des Extinktionsanstiegs bestimmt.
(§2) Für die Bestimmung der Umsetzungsgeschwindigkeit wird der in der Enzymreaktion erhaltene Extinktionsanstieg um den für die Spontanhydrolyse ermittelten Betrag vermindert. Absolutwerte für die Substratspaltung (Mol. Min.^-1) können aus den Extinktionsdifferenzen mit Hilfe der molaren Extinktionskoeffizienten errechnet werden.
Beschleunigung der Spaltung von N-Tosyl-L-alanin-3-hydroxy-5-phenylpyrrolester mit Leukozyten in 0.1 M Tris-(hydroxymethyl)-aminomethan-Salzsäurepuffer (pH 8.8) in Gegenwart von 250 µl N-Methylpyrrolidon durch Zusätze von Aktivatoren und Detergentien.
Beschleunigung der Spaltung von N-Tosyl-L-alanin-3-hydroxy-5-phenylpyrrolester mit Leukozyten in diversen 0.1 M. Puffern (pH 8.4) unter Zusatz von 250 µl N-Methylpyrrolidon und Aktivatoren sowie Detergentien.

Leukozyten-Enzyme [2] = experiment: Acceleration of enzymatic cleavage of N-Tosyl-L-alanin-indoxylester by leukocytes (photometric, 360 nm); conditions: for relative Spaltungsgeschwindigkeit: 0.1 M Tris-HCl buffer pH 8.8, 360 nm; for rel.Geschwindigk.der Enzymreaktion, bezogen auf Decanol (0,125 µl/Test) = 1: 50 µl N-Methylpyrrolidon, SDS 10 µg/Test, Tris-HCl pH 8.8
Experimental: as §1, §2
Beschleunigende Wirkung von Alkanolen auf die enzymatische Spaltung von N-Tosyl-L-alanin-indoxylester mit Leukozyten in 0.1 M Tris-(hydroxymethyl)-aminomethan-Salzsäure-Puffer pH 8.8 unter Zusatz von SDS bzw. Polylysin mit einem mittleren Molekulargewicht von 14 000 (Messung bei 360 nm).
Konzentrationsabhängigkeit der beschleunigenden Wirkung von n-Undecanol auf die Spaltung von N-Tosyl-L-alanin-indoxylester mit Leukozyten in Gegenwart von 50 µl N-Methylpyrrolidon/Testansatz und 10 µg/Test SDS in 0.1 M Tris-(hydroxymethyl)-aminomethan-Salzsäurepuffer (pH 8.8).

Leukozyten-Enzyme [3] = experiment: Acceleration of cleavage of N-Tosyl-L-alanin-5-hydroxy-1,2-benzisothiazolylester by leukocytes (photometric, 325 nm); conditions: Aktivator 125 µg/Test, Tris-HCl pH 8.4, 100 µl N-Methylpyrrolidon
Experimental: as §1, §2
Beschleunigung der Spaltung von N-Tosyl-L-alanin-5-hydroxy-1,2-benzisothiazolylester mit Leukozyten in 0.1 M Tris-(hydroxymethyl)-aminomethan-Salzsäurepuffer (pH 8.4) in Gegenwart von 100 µl N-Methylpyrrolidon durch Zusätze von Aktivatoren und Detergentien.

Leukozyten-Enzyme [4] = experiment: Activation of leukocyte enzymes, general statement in the description; conditions: statement in words; compared with Hexanol, Heptanol, Octanol, Nonanol, Decanol, Dodecanol, Tridecanol of EP-A 14 929
Experimental: as §1, §2

[5] = Puffer Borat 0.1 M pH 8.4, Aktivator 0.125 µl bzw. 125 µg je Test, SDS 10 µg/Test
[6] = Puffer Tris 0.1 M pH 8.4, Aktivator 0.125 µl bzw. 125 µg je Test, SDS 10 µg/Test
[7] = Detergens Poly-L-Lys (mean MW 14 000) 20 µg/Test
[8] = Aktivator 125 µg/Test, SDS 10 µg/Test, Tris-HCl pH 8.8
[9] = Aktivator 125 µg/Test, Zephirol 20 µg/Test, Tris-HCl pH 8.8
[10] = Puffer Borat 0.1 M pH 8.4, Aktivator 0.125 µl bzw. 125 µg je Test, no detergent
[11] = Puffer Carbonat-Hydrogencarbonat 0.1 M pH 8.4, Aktivator 0.125 µl bzw. 125 µg je Test, SDS 10 µg/Test
[12] = Puffer Phosphat 0.1 M pH 8.4, Aktivator 0.125 µl bzw. 125 µg je Test, SDS 10 µg/Test
[13] = Puffer Tris 0.1 M pH 8.4, Aktivator 0.125 µl bzw. 125 µg je Test, BDTA 20 µg/Test
[14] = Puffer Tris 0.1 M pH 8.4, Aktivator 0.125 µl bzw. 125 µg je Test, Poly-L-Arg (40000) 20 µg/Test
[15] = Puffer Tris 0.1 M pH 8.4, Aktivator 0.125 µl bzw. 125 µg je Test, no detergent

Row | relative Spaltungsgeschwindigkeit (Leukozyten-Enzyme [1]; [5]) | relative Spaltungsgeschwindigkeit (Leukozyten-Enzyme [1]; [6]) | relative Spaltungsgeschwindigkeit (Leukozyten-Enzyme [2]; Detergens SDS 10 µg/Test) | relative Spaltungsgeschwindigkeit (Leukozyten-Enzyme [2]; [7]) | relative Spaltungsgeschwindigkeit (Leukozyten-Enzyme [3]; Poly-L-Lys(14000) 20 µg/Test) | relative Spaltungsgeschwindigkeit (Leukozyten-Enzyme [3]; Poly-L-Orn(30000) 20 µg/Test) | relative Spaltungsgeschwindigkeit (Leukozyten-Enzyme [3]; SDS 10 µg/Test) | relative Spaltungsgeschwindigkeit (Leukozyten-Enzyme [3]; no detergent) | relative Spaltungsgeschwindigkeit (Leukozyten-Enzyme [1]; [8]) | relative Spaltungsgeschwindigkeit (Leukozyten-Enzyme [1]; [9]) | relative Spaltungsgeschwindigkeit (Leukozyten-Enzyme [1]; [10]) | relative Spaltungsgeschwindigkeit (Leukozyten-Enzyme [1]; [11]) | relative Spaltungsgeschwindigkeit (Leukozyten-Enzyme [1]; [12]) | relative Spaltungsgeschwindigkeit (Leukozyten-Enzyme [1]; [13]) | relative Spaltungsgeschwindigkeit (Leukozyten-Enzyme [1]; [14]) | relative Spaltungsgeschwindigkeit (Leukozyten-Enzyme [1]; [15]) | Structure (SMILES) | other results
1 | 3.0 | 0.6 | – | – | – | – | – | – | – | – | – | – | – | – | – | – | CCCCCCCCCO [n-Nonanol] | –
2 | – | – | 0.75 | – | – | – | – | – | – | – | – | – | – | – | – | – | CCCCCCCCCCCCCO [n-Tridecanol] | –
3 | 15.2 | 2.1 | 1.85 | 6.5 | 8.2 | 7.4 | 2.5 | 3.1 | 3.3 | 2.6 | 5.6 | 6.6 | 17.3 | 3.55 | 6.55 | 1.7 | CCCCCCCCCCCO [n-Undecanol] | rel.Geschwindigk.der Enzymreaktion, bezogen auf Decanol (0,125 µl/Test) = 1 (Leukozyten-Enzyme [2]; 0,2 µl Undecanol in test solution): 2,1; rel.Geschwindigk.der Enzymreaktion, bezogen auf Decanol (0,125 µl/Test) = 1 (Leukozyten-Enzyme [2]; 0,5 µl Undecanol in test solution): 3,1; rel.Geschwindigk.der Enzymreaktion, bezogen auf Decanol (0,125 µl/Test) = 1 (Leukozyten-Enzyme [2]; 0,25 µl Undecanol in test solution): 3,2; rel.Geschwindigk.der Enzymreaktion, bezogen auf Decanol (0,125 µl/Test) = 1 (Leukozyten-Enzyme [2]; 0,025 µl Undecanol in test solution): 0,65; rel.Geschwindigk.der Enzymreaktion, bezogen auf Decanol (0,125 µl/Test) = 1 (Leukozyten-Enzyme [2]; 0,075 µl Undecanol in test solution): 1,5; rel.Geschwindigk.der Enzymreaktion, bezogen auf Decanol (0,125 µl/Test) = 1 (Leukozyten-Enzyme [2]; 0,125 µl Undecanol in test solution): 1,75; Aktivierung der Leukozyten-Enzyme (Leukozyten-Enzyme [4]): stark aktiviert; also recorded: alle vorgenannten Alkohole in der Aktivierung der Leukozyten- Enzyme übertrifft
4 | 9.0 | 1 | 1 | 3.2 | 4.25 | 3.8 | 1.0 | 1.9 | 1.0 | 1.27 | 4.9 | 5.6 | 12.0 | 1.05 | 3.7 | 0.9 | CCCCCCCCCCO [n-Decanol] | relative Spaltungsgeschwindigkeit (Leukozyten-Enzyme [1]; Puffer Borat 0.1 M pH 8.4, Aktivator 0.125 µl bzw. 125 µg je Test, Poly-DL-Lys(37000) 20 µg/Test): 3.15
5 | – | – | – | – | – | – | – | – | – | – | – | – | – | – | – | – | CCCCCCCCCCCCOS(=O)(=O)O [SDS, Natriumdodecylsulfat] | relative Spaltungsgeschwindigkeit (Leukozyten-Enzyme [1]; Puffer Borat 0.1 M pH 8.4, no activator, detergent SDS alone 10 µg/Test): 2.8; relative Spaltungsgeschwindigkeit (Leukozyten-Enzyme [1]; Puffer Tris 0.1 M pH 8.4, no activator, detergent SDS alone 10 µg/Test): 0.8
6 | 9.0 | – | 0.55 | – | – | – | – | – | – | – | – | – | – | – | – | – | CCCCCCCCCCCCO [n-Dodecanol] | –
